Results reported in ChEMBL document CHEMBL3886201, “Compositions and methods for the treatment of malaria” (2016).

How the values were obtained:
Plasmepsin II = Plasmepsin II (Plasmodium falciparum, UniProt P46925); experiment: Enzyme Inhibition Assay : Plasmepsin-2 (PM-2; Plm II) and Plasmepsin (PM-4; Plm IV) expression and purification was performed following the published protocols (Istvan E S and Goldberg D E, 2005). The final purified protein was activated by diluting the protein to 0.3 mg/mL in activating buffer (0.1 M citrate pH 4.5, 0.1% Tween-20, 50 mM dithiothreitol) and incubated at room temperature for 40 min, then the activated enzyme was diluted in assay buffer (50 mM sodium acetate pH 4.7, 0.01% Tween-20). The enzymatic inhibition reaction was performed in 384 well plates with a total volume of 20 μl. 10 μl of diluted PM-2 or PM-4 enzyme was added to the 384-well plate except blank wells (blank wells add 10 μL of assay buffer) and 20 nL of serials of diluted 1000× compounds were added to the wells with 520 Echo® Liquid Handling System (Labcyte Inc.). 10 μL PM-2 peptide substrate (AnaSpec, Cat#, 62050) with assay buffer was then added to final concentration of 20 μM to start the reaction.
Beta-secretase 1 = Beta-secretase 1 (Homo sapiens, UniProt P56817); experiment: The enzymatic inhibition activity assays were determined using the fluorescence resonance energy transfer (FRET) assay. The assays were performed in a 384-well plate format. […] The concentration of Cathepsin D was 20 ng/μL, and 1 ng/μL of Cathepsin E was used. CatD and CatE were activated by incubation in assay buffer (0.1 M NaOAc, 0.2 M NaCl, pH 3.5) at room temperature for 30 min. Subsequently, the rhBACE-1 substrate (R&D Systems, catalog# ES004), the Cathepsin D and Cathepsin E substrate (R&D Systems, Catalog # ES001) were added accordingly to final concentration
Chain of Beta-secretase 1 (P56817 whole entry): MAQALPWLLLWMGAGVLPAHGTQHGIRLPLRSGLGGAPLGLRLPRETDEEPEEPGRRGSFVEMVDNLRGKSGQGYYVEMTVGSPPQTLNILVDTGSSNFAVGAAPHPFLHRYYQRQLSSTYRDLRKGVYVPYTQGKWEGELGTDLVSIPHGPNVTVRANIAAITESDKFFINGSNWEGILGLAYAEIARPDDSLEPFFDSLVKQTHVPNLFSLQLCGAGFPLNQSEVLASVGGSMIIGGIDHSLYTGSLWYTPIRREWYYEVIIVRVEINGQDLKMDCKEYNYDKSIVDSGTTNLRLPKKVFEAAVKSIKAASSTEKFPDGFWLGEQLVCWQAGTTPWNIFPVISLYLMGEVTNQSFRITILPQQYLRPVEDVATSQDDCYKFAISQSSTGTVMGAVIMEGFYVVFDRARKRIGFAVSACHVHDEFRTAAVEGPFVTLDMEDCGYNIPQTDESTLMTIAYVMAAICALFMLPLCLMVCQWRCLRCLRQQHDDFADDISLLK

Chain of Plasmepsin II (P46925 whole entry): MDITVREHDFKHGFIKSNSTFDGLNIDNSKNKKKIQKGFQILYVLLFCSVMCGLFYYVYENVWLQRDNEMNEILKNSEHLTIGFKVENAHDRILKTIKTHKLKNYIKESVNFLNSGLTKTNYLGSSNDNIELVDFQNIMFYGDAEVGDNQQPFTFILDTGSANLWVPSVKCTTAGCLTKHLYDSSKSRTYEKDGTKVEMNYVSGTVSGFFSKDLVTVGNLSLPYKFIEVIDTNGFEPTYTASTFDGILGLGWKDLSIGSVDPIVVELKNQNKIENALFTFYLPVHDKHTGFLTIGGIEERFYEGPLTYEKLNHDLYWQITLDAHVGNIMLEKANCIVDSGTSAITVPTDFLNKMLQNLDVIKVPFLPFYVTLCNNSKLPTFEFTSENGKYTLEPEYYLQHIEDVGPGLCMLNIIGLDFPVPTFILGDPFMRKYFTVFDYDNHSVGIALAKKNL

Row | SMILES | IC50 (Plasmepsin II) [nM] | IC50 (Beta-secretase 1) [nM]
1 | N=C1NC(c2ccccc2)(c2cccc(Oc3ccccc3)c2)C(=O)N1C1CCCCC1 (stereo not drawn) | 2.2 | –
2 | N=C1NC(c2cccc(-c3cccnc3)c2)(C2CC2)C(=O)N1C1CCCCC1 (stereo not drawn) | 126 | 16800
